Measured values: US11590139B2, “Substituted aminopurine compounds, compositions thereof, and methods of treatment therewith” (Signal Pharmaceuticals, LLC, priority 2014, dated 2023)

system: Lox-IMVI melanoma cell line; test: Lox-IMVI anti-proliferative assay (growth inhibition, Cell Titer-Glo); format: cell-based, human; details: Homo sapiens; Lox-IMVI melanoma cell line, anti-proliferative assay; read-out: Activity (IC50 activity level)
In short: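 Cells grown in RPMI + 10% FBS were exposed to compound at 0.5 nM to 10 μM (10-point, 3-fold dilution, duplicate, 0.2% DMSO final) for 72 h at 37 °C, 5% CO2. Viability was read by ATP luminescence at t0 and 72 h. IC50 came from a four-parameter logistic fit normalized to DMSO control.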

Compound | IC50
C[C@]1(C(N)=O)CC[C@@H](n2c(Nc3c(F)cc(F)cc3Cl)nc3cnc(N[C@@H]4CCOC[C@H]4F)nc32)CC1 [Example 715, (1S,4s)-4-(8-(2-chloro-4,6-difluorophenylamino)-2-((3S,4R)-3-fluorotetrahydro-2H-pyran-4-ylamino)-9H-purin-9-yl)-1-methylcyclohexanecarboxamide] | < 250 nM
C[C@]1(C(N)=O)CC[C@@H](n2c(Nc3c(F)cc(Cl)cc3Cl)nc3cnc(N[C@H]4CCOC[C@H]4F)nc32)CC1 [Example 716, (1R,4s)-4-(8-(2,4-dichloro-6-fluorophenylamino)-2-((3S,4S)-3-fluorotetrahydro-2H-pyran-4-ylamino)-9H-purin-9-yl)-1-methylcyclohexanecarboxamide] | < 250 nM
C[C@@H]1COCC[C@H]1Nc1ncc2nc(Nc3c(F)cc(Cl)cc3Cl)n([C@H]3CC[C@@](C)(C(N)=O)CC3)c2n1 [Example 717, (1S,4s)-4-(8-(2,4-dichloro-6-fluorophenylamino)-2-((3S,4R)-3-methyltetrahydro-2H-pyran-4-ylamino)-9H-purin-9-yl)-1-methylcyclohexanecarboxamide] | < 250 nM
C[C@]1(C(N)=O)CC[C@@H](n2c(Nc3c(Cl)cc(Cl)cc3Cl)nc3cnc(N[C@@H]4CCOC[C@H]4F)nc32)CC1 [Example 718, (1S,4s)-4-(2-((3S,4R)-3-fluorotetrahydro-2H-pyran-4-ylamino)-8-(2,4,6-trichlorophenylamino)-9H-purin-9-yl)-1-methylcyclohexanecarboxamide] | < 250 nM
C[C@]1(C(N)=O)CC[C@@H](n2c(Nc3c(Cl)cc(Cl)cc3Cl)nc3cnc(N[C@H]4CCOC[C@H]4F)nc32)CC1 [Example 719, (1R,4s)-4-(2-((3S,4S)-3-fluorotetrahydro-2H-pyran-4-ylamino)-8-(2,4,6-trichlorophenylamino)-9H-purin-9-yl)-1-methylcyclohexanecarboxamide] | < 250 nM
C[C@]1(C(N)=O)CC[C@@H](n2c(Nc3c(F)cc(Cl)cc3F)nc3cnc(N[C@@H]4CCOC[C@H]4F)nc32)CC1 [Example 720, (1S,4s)-4-(8-(4-chloro-2,6-difluorophenylamino)-2-((3S,4R)-3-fluorotetrahydro-2H-pyran-4-ylamino)-9H-purin-9-yl)-1-methylcyclohexanecarboxamide] | < 250 nM
C[C@]1(C(N)=O)CC[C@@H](n2c(Nc3c(F)cc(Cl)cc3F)nc3cnc(N[C@H]4CCOC[C@H]4F)nc32)CC1 [Example 721, (1R,4s)-4-(8-(4-chloro-2,6-difluorophenylamino)-2-((3S,4S)-3-fluorotetrahydro-2H-pyran-4-ylamino)-9H-purin-9-yl)-1-methylcyclohexanecarboxamide] | < 250 nM
C[C@@H]1COCC[C@H]1Nc1ncc2nc(Nc3c(F)cc(Cl)cc3F)n([C@H]3CC[C@@](C)(C(N)=O)CC3)c2n1 [Example 722, (1S,4s)-4-(8-(4-chloro-2,6-difluorophenylamino)-2-((3S,4R)-3-methyltetrahydro-2H-pyran-4-ylamino)-9H-purin-9-yl)-1-methylcyclohexanecarboxamide] | < 250 nM
C[C@@H]1COCC[C@H]1Nc1ncc2nc(Nc3c(F)cc(F)cc3Cl)n([C@H]3CC[C@@H](C(N)=O)CC3)c2n1 [Example 723, (1S,4s)-4-(8-(2-chloro-4,6-difluorophenylamino)-2-((3S,4R)-3-methyltetrahydro-2H-pyran-4-ylamino)-9H-purin-9-yl)cyclohexanecarboxamide] | < 250 nM
C[C@]1(C(N)=O)CC[C@@H](n2c(Nc3c(F)cc(F)cc3Cl)nc3cnc(N[C@H]4CCOC[C@H]4F)nc32)CC1 [Example 724, (1R,4s)-4-(8-(2-chloro-4,6-difluorophenylamino)-2-((3S,4S)-3-fluorotetrahydro-2H-pyran-4-ylamino)-9H-purin-9-yl)-1-methylcyclohexanecarboxamide] | < 250 nM
C[C@@H]1COCC[C@H]1Nc1ncc2nc(Nc3c(F)cc(F)cc3Cl)n([C@H]3CC[C@@](C)(C(N)=O)CC3)c2n1 [Example 725, (1S,4s)-4-(8-(2-chloro-4,6-difluorophenylamino)-2-((3S,4R)-3-methyltetrahydro-2H-pyran-4-ylamino)-9H-purin-9-yl)-1-methylcyclohexanecarboxamide] | < 250 nM
C[C@]1(C(N)=O)CC[C@@H](n2c(Nc3c(F)cc(Cl)cc3Cl)nc3cnc(N[C@@H]4CCOC[C@H]4F)nc32)CC1 [Example 726, (1S,4s)-4-(8-(2,4-dichloro-6-fluorophenylamino)-2-((3S,4R)-3-fluorotetrahydro-2H-pyran-4-ylamino)-9H-purin-9-yl)-1-methylcyclohexanecarboxamide] | < 250 nM
C[C@@H]1COCC[C@H]1Nc1ncc2nc(Nc3c(Cl)cc(Cl)cc3Cl)n([C@H]3CC[C@@](C)(C(N)=O)CC3)c2n1 [Example 727, (1S,4s)-1-methyl-4-(2-((3S,4R)-3-methyltetrahydro-2H-pyran-4-ylamino)-8-(2,4,6-trichlorophenylamino)-9H-purin-9-yl)cyclohexanecarboxamide] | < 250 nM
NC(=O)[C@H]1CC[C@@H](n2c(Nc3c(F)cc(Cl)cc3Cl)nc3cnc(N[C@@H]4CCOC[C@H]4F)nc32)CC1 [Example 728, (1S,4s)-4-(8-(2,4-dichloro-6-fluorophenylamino)-2-((3S,4R)-3-fluorotetrahydro-2H-pyran-4-ylamino)-9H-purin-9-yl)cyclohexanecarboxamide] | < 250 nM
CS(=O)(=O)C1CC(Nc2ncc3nc(Nc4c(Cl)cc(Cl)cc4Cl)n([C@H]4CC[C@@H](C(N)=O)CC4)c3n2)C1 (stereo partly drawn) [Example 729, (1s,4s)-4-(2-(3-(methylsulfonyl)cyclobutylamino)-8-(2,4,6-trichlorophenylamino)-9H-purin-9-yl)cyclohexanecarboxamide] | > 1000 nM
CS(=O)(=O)C1CC(Nc2ncc3nc(Nc4c(Cl)cc(C#N)cc4Cl)n([C@H]4CC[C@@H](C(N)=O)CC4)c3n2)C1 (stereo partly drawn) [Example 730, (1s,4s)-4-(8-(2,6-dichloro-4-cyanophenylamino)-2-(3-(methylsulfonyl)cyclobutylamino)-9H-purin-9-yl)cyclohexanecarboxamide] | > 1000 nM
CS(=O)(=O)C1CC(Nc2ncc3nc(Nc4c(F)cc(Cl)cc4Cl)n([C@H]4CC[C@@H](C(N)=O)CC4)c3n2)C1 (stereo partly drawn) [Example 731, (1s,4s)-4-(8-(2,4-dichloro-6-fluorophenylamino)-2-(3-(methylsulfonyl)cyclobutylamino)-9H-purin-9-yl)cyclohexanecarboxamide] | > 1000 nM
CCN1CCC[C@@H](Nc2ncc3nc(Nc4c(Cl)cc(Cl)cc4Cl)n([C@H]4CC[C@@H](C(N)=O)CC4)c3n2)C1 [Example 732, (1S,4s)-4-(2-((R)-1-ethylpiperidin-3-ylamino)-8-(2,4,6-trichlorophenylamino)-9H-purin-9-yl)cyclohexanecarboxamide] | > 1000 nM
CCN1CCC[C@@H](Nc2ncc3nc(Nc4c(Cl)cc(C#N)cc4Cl)n([C@H]4CC[C@@H](C(N)=O)CC4)c3n2)C1 [Example 733, (1S,4s)-4-(8-(2,6-dichloro-4-cyanophenylamino)-2-((R)-1-ethylpiperidin-3-ylamino)-9H-purin-9-yl)cyclohexanecarboxamide] | > 1000 nM
CCN1CCC[C@@H](Nc2ncc3nc(Nc4c(F)cc(Cl)cc4Cl)n([C@H]4CC[C@@H](C(N)=O)CC4)c3n2)C1 [Example 734, (1S,4s)-4-(8-(2,4-dichloro-6-fluorophenylamino)-2-((R)-1-ethylpiperidin-3-ylamino)-9H-purin-9-yl)cyclohexanecarboxamide] | > 1000 nM
CS(=O)(=O)C1CC(Nc2ncc3nc(Nc4c(Cl)cc(C(F)(F)F)cc4Cl)n([C@H]4CC[C@@H](C(N)=O)CC4)c3n2)C1 (stereo partly drawn) [Example 735, (1s,4s)-4-(8-(2,6-dichloro-4-(trifluoromethyl)phenylamino)-2-(3-(methylsulfonyl)cyclobutylamino)-9H-purin-9-yl)cyclohexanecarboxamide] | > 1000 nM
CS(=O)(=O)C1CC(Nc2ncc3nc(Nc4c(F)cc(Cl)cc4F)n([C@H]4CC[C@@H](C(N)=O)CC4)c3n2)C1 (stereo partly drawn) [Example 736, (1s,4s)-4-(8-(4-chloro-2,6-difluorophenylamino)-2-(3-(methylsulfonyl)cyclobutylamino)-9H-purin-9-yl)cyclohexanecarboxamide] | > 1000 nM
CCN1CCC[C@@H](Nc2ncc3nc(Nc4c(Cl)cc(C(F)(F)F)cc4Cl)n([C@H]4CC[C@@H](C(N)=O)CC4)c3n2)C1 [Example 737, (1S,4s)-4-(8-(2,6-dichloro-4-(trifluoromethyl)phenylamino)-2-((R)-1-ethylpiperidin-3-ylamino)-9H-purin-9-yl)cyclohexanecarboxamide] | > 1000 nM
CC(C)N1CCC[C@@H](Nc2ncc3nc(Nc4c(Cl)cc(Cl)cc4Cl)n([C@H]4CC[C@@H](C(N)=O)CC4)c3n2)C1 [Example 738, (1S,4s)-4-(2-((R)-1-isopropylpiperidin-3-ylamino)-8-(2,4,6-trichlorophenylamino)-9H-purin-9-yl)cyclohexanecarboxamide] | > 1000 nM
CC(C)N1CCC[C@@H](Nc2ncc3nc(Nc4c(Cl)cc(C#N)cc4Cl)n([C@H]4CC[C@@H](C(N)=O)CC4)c3n2)C1 [Example 739, (1S,4s)-4-(8-(2,6-dichloro-4-cyanophenylamino)-2-((R)-1-isopropylpiperidin-3-ylamino)-9H-purin-9-yl)cyclohexanecarboxamide] | > 1000 nM
CC(C)N1CCC[C@@H](Nc2ncc3nc(Nc4c(F)cc(Cl)cc4F)n([C@H]4CC[C@@H](C(N)=O)CC4)c3n2)C1 [Example 740, (1S,4s)-4-(8-(4-chloro-2,6-difluorophenylamino)-2-((R)-1-isopropylpiperidin-3-ylamino)-9H-purin-9-yl)cyclohexanecarboxamide] | > 1000 nM
CC(C)N1CCC[C@@H](Nc2ncc3nc(Nc4c(F)cc(Cl)cc4Cl)n([C@H]4CC[C@@H](C(N)=O)CC4)c3n2)C1 [Example 741, (1S,4s)-4-(8-(2,4-dichloro-6-fluorophenylamino)-2-((R)-1-isopropylpiperidin-3-ylamino)-9H-purin-9-yl)cyclohexanecarboxamide] | > 1000 nM
